Where only a bound is given, the exact number is not on record here.

We go through 17 compounds from ChEMBL document CHEMBL3580565, “Synthesis and Biological Evaluation of Cyclopentaquinoline Derivatives as Nonsteroidal Glucocorticoid Receptor Antagonists” (J Med Chem, 2015).

Experiment [1] addresses T1, Glucocorticoid receptor (Homo sapiens, UniProt P04150).
T1 sequence (P04150 whole entry): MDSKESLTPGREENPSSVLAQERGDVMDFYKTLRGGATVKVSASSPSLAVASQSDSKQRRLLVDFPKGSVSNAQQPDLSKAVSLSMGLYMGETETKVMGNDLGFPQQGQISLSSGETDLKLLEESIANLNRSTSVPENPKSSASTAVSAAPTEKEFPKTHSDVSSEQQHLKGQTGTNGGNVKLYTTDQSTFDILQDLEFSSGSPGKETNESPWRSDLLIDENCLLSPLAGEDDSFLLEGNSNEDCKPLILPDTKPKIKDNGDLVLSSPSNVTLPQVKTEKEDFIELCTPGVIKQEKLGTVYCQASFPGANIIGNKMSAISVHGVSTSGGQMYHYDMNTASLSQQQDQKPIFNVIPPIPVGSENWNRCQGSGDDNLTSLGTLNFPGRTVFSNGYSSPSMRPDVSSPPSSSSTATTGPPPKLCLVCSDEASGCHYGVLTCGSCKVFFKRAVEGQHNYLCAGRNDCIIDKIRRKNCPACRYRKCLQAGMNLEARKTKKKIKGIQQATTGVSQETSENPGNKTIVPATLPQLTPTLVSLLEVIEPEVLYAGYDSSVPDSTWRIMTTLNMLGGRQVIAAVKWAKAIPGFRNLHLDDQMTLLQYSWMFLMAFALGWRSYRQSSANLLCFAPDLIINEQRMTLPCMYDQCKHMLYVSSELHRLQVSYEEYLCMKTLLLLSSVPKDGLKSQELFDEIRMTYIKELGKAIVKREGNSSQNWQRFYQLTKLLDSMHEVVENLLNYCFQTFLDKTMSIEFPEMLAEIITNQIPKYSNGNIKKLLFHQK
The experiment is described as follows: Antagonist activity at human glucocorticoid receptor transfected in CHOK1 cells assessed as inhibition of dexamethasone-induced receptor transcriptional activity after 6 hrs by luciferase reporter gene assay. In kind it is cell-based, CHO-K1.

For experiment [2], the target named is T1, Glucocorticoid receptor. Kind of experiment: Displacement of [3H]-dexamethasone from cytosolic fraction of human recombinant glucocorticoid receptor by scintillation counting analysis. Background: In a radioligand displacement assay an active substance lowers the binding of a labelled ligand.
Experiment [3] has as its target T2, Mineralocorticoid receptor (Homo sapiens, UniProt P08235).
T2 sequence (P08235 whole entry): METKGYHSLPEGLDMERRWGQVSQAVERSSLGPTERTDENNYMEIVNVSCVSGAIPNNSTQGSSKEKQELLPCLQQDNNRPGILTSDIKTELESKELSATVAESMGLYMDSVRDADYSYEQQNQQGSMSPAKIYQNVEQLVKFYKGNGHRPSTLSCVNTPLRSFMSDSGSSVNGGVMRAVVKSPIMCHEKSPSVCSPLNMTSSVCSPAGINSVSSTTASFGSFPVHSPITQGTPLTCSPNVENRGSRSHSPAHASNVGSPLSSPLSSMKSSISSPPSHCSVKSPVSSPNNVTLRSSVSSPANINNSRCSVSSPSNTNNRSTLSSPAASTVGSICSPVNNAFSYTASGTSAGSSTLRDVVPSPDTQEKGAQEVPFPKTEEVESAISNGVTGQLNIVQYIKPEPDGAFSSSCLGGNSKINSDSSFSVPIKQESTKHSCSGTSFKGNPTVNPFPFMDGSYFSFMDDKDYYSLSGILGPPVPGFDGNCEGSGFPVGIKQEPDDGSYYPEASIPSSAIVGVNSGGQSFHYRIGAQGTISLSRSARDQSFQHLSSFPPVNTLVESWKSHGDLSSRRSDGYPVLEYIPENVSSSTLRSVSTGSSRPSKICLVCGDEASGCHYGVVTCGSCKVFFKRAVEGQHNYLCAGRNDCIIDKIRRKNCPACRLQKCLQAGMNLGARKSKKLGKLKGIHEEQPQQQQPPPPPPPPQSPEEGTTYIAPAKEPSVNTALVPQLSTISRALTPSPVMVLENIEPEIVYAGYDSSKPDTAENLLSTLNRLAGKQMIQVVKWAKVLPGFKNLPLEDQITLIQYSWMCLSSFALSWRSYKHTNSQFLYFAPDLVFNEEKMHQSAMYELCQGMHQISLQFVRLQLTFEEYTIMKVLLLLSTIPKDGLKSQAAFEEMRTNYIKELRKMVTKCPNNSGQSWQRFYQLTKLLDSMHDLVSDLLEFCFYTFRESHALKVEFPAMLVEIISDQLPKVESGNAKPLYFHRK
The experiment is described as follows: Displacement of [3H]-aldosterone from cytosolic fraction of human recombinant mineralocorticoid receptor by scintillation counting analysis.

The target in experiment [4] is T3, Progesterone receptor (Homo sapiens, UniProt P06401).
T3 sequence (P06401 whole entry): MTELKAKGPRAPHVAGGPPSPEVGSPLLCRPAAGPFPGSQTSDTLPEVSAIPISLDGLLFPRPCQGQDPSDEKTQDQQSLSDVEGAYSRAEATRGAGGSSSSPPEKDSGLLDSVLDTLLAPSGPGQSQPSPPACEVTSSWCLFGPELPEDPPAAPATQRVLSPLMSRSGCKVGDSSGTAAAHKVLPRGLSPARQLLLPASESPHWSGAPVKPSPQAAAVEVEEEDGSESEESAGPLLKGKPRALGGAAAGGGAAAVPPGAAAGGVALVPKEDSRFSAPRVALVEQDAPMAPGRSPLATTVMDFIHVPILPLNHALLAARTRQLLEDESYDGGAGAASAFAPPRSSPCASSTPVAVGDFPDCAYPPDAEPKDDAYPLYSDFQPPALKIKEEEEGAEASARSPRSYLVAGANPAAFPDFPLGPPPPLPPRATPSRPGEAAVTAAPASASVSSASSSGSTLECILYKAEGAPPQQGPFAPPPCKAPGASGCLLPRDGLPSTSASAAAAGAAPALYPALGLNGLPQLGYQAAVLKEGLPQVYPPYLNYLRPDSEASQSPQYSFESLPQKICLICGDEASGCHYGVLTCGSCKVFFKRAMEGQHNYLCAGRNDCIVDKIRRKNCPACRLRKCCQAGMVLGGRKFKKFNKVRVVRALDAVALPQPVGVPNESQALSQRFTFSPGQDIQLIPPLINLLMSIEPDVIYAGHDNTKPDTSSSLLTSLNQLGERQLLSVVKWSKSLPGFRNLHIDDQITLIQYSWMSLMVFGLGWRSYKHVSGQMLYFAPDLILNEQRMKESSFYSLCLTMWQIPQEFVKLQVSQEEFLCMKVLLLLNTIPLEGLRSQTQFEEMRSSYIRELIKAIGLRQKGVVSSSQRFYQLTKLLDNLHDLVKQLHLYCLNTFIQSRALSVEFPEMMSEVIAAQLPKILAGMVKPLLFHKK
Kind of experiment: Displacement of [3H]-progesterone from cytosolic fraction of human recombinant progesterone-B receptor by scintillation counting analysis.

The test system of experiment [5] is Rattus norvegicus. The experiment is described as follows: Antidepressant-like activity in Wistar rat assessed as decrease in immobility time at 10 mg/kg, po administered at 1, 5, 23.5 hrs prior to testing measured for 5 mins by forced swimming test relative to vehicle-treated control. The class given is functional. Also on record: scale not given: the % may be the effect or the level left.

The test system of experiment [6] is Rattus norvegicus. The experiment is described as follows: Antidepressant-like activity in Wistar rat assessed as immobility time at 10 mg/kg, po administered at 1, 5, 23.5 hrs prior to testing measured for 5 mins by forced swimming test (reference value: 211.3 to 232.2 secs). In kind it is functional.
In experiment [7] the test system is Rattus norvegicus. Kind of experiment: Antidepressant-like activity in Wistar rat assessed as immobility time at 30 mg/kg, po administered at 1, 5, 23.5 hrs prior to testing measured for 5 mins by forced swimming test (reference value: 211.3 to 232.2 secs). In kind it is functional.
In experiment [8] the test system is Rattus norvegicus. Kind of experiment: Antidepressant-like activity in Wistar rat assessed as decrease in immobility time at 30 mg/kg, po administered at 1, 5, 23.5 hrs prior to testing measured for 5 mins by forced swimming test relative to vehicle-treated control. In kind it is functional. Also on record: scale not given: the % may be the effect or the level left.

Take `Cc1noc(C)c1-c1ccc2c(c1)C(C)(C)C(=O)C(C)(C)N2`: the IC50 (in general, the concentration that inhibits the measured activity by half) in experiment [1] was determined as 37 nM. Besides, the Ki (in general, a measure of affinity in units of concentration, obtained from inhibition or displacement) in experiment [2] is 16 nM; in experiment [3], 337 nM; in experiment [4], 22 nM.
Turning to `Cc1noc(C)c1-c1cc2c(cc1Cl)NC(C)(C)C(=O)C2(C)C`, in experiment [1], the IC50 is less than 30 nM. Besides, the inhibition constant Ki in experiment [2] was 151 nM; in experiment [3], greater than 3000 nM; in experiment [4], 403 nM.
For `COc1cc2c(cc1-c1c(C)noc1C)C(C)(C)C(=O)C(C)(C)N2`, the inhibition constant (Ki) in experiment [2] is 146 nM.
Turning to `Cc1noc(C)c1-c1cc2c(c3c1CCCC3)NC(C)(C)C(=O)C2(C)C`, the concentration for half-maximal inhibition (IC50) in experiment [1] was 167 nM. Further, the inhibitory constant (Ki) in experiment [2] is 106 nM.
Consider `Cc1noc(C)c1-c1cc2c(c3c1OCO3)NC(C)(C)C(=O)C2(C)C`, for which, in experiment [1], the IC50 came out at 77 nM. The Ki is greater than 3000 nM in experiment [3] and 2270 nM in experiment [4].
Consider `Cc1cnn(C)c1-c1cc2c(c3c1CCC3)NC(C)(C)C(=O)C2(C)C`, for which the IC50 in experiment [1] amounted to 128 nM. Also, the inhibition constant (Ki) in experiment [2] was 28 nM; in experiment [4], greater than 1250 nM.
Turning to `Cc1ncn(C)c1-c1cc2c(c3c1CCC3)NC(C)(C)C(=O)C2(C)C`, the IC50 in experiment [1] is 150 nM. Besides, in experiment [2], the Ki was 69 nM.
With `Cc1cc(-c2cc3c(c4c2CCC4)NC(C)(C)C(=O)C3(C)C)n(C)n1`, the Ki in experiment [2] was greater than 384 nM.
In the case of `Cc1cn(C)c(-c2cc3c(c4c2CCC4)NC(C)(C)C(=O)C3(C)C)n1`, the Ki in experiment [2] is greater than 384 nM.
Consider `CC1(C)Nc2c(cc(-c3cccc4nccn34)c3c2CCC3)C(C)(C)C1=O`, for which the concentration for half-maximal inhibition (IC50) in experiment [1] is 21 nM.
Turning to `CC1(C)Nc2c(cc(-c3cccn4nccc34)c3c2CCC3)C(C)(C)C1=O`, the IC50 in experiment [1] came to 84 nM. Moreover, the figures for the Ki in experiment [2] and in experiment [4] were 35 nM and 1190 nM, respectively.
With `CC1(C)Nc2c(cc(-c3cncc4nccn34)c3c2CCC3)C(C)(C)C1=O`, the IC50 in experiment [1] worked out at 93 nM. Also, the Ki was 46 nM in experiment [2], greater than 3330 nM in experiment [3] and greater than 1250 nM in experiment [4].
On to `CC1(C)Nc2c(cc(-c3cccc4nncn34)c3c2CCC3)C(C)(C)C1=O`, for which, in experiment [1], the IC50 came to 91 nM.
As for `CC1(C)Nc2c(cc(-c3cccn4cnnc34)c3c2CCC3)C(C)(C)C1=O`, in experiment [2], the inhibition constant (Ki) was greater than 384 nM.
With `CC1(C)Nc2c(cc(-c3ccnc4ccccc34)c3c2CCC3)C(C)(C)C1=O`, the inhibition constant (Ki) in experiment [2] stood at 151 nM.
As to `CC1(C)Nc2c(cc(-c3ccnc4ncccc34)c3c2CCC3)C(C)(C)C1=O`, the IC50 in experiment [1] came out at 53 nM.
On to `CC#C[C@]1(O)CC[C@H]2[C@@H]3CCC4=CC(=O)CCC4=C3[C@@H](c3ccc(N(C)C)cc3)C[C@@]21C` [MIFEPRISTONE], for which the Activity stood at 88.5% in experiment [5] and 80.1% in experiment [8]. Also, the values for the Time in experiment [6] and in experiment [7] were 187 s and 169.3 s, respectively.
